Active and inactive are the calls of the source.
How the values were obtained:
[1] = cytotoxicity in HEK-293T cells, dose response, cytotoxicity control for BCR NF-kB inhibitor project, luminescence, B-cell screen hits (AID 489021); type: functional, cell-based;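 note: HEK-293T cells carrying an NF-kB luciferase reporter; cells exposed to compound for about 14 hours before viability readout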
[2] = molecular target: T1, High affinity choline transporter 1 (Homo sapiens, UniProt Q9GZV3); test: CHT activators, dose response, cell-based, 10-point CRC, membrane potential dye (AID 602376); type: functional
T1 sequence (Q9GZV3 whole entry): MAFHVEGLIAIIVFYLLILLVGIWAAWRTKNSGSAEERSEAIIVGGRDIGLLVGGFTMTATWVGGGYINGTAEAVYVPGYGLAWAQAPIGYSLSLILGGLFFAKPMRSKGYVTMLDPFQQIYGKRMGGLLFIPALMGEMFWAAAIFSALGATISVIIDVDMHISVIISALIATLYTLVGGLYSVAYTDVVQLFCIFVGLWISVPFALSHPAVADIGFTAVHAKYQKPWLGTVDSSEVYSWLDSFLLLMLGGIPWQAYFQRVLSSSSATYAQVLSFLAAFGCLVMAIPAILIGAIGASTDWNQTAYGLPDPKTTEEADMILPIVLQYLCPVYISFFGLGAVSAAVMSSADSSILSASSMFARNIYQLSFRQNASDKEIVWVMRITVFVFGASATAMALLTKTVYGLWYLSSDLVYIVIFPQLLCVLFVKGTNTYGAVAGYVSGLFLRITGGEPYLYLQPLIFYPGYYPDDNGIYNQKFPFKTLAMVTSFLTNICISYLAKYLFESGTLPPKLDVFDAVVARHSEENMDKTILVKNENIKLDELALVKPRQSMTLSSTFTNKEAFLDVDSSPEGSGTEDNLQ

[3] = molecular target: T2, Sentrin-specific protease 8 (Homo sapiens, UniProt Q96LD8); test: SENP8 protease inhibitors, SAR follow-up, biochemical, luminescence (AID 504501); type: functional
T2 sequence (Q96LD8 whole entry): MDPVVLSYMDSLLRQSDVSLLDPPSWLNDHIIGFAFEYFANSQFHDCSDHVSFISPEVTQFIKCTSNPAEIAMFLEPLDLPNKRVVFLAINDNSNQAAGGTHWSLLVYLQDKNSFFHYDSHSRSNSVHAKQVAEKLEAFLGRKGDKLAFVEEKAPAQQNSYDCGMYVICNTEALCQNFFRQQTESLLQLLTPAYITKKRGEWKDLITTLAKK

Caspase-3 = molecular target: T3, Caspase-3 (Homo sapiens, UniProt P42574); test: SAR Analysis of small molecule inhibitors of Sentrin-specific proteases (SENPs) using a Caspase-3 Selectivity assay. [Related pubchem assays (depositor defined):AID2540, AID2599, AID434973, AID489001]; type: functional
T3 sequence (P42574 whole entry): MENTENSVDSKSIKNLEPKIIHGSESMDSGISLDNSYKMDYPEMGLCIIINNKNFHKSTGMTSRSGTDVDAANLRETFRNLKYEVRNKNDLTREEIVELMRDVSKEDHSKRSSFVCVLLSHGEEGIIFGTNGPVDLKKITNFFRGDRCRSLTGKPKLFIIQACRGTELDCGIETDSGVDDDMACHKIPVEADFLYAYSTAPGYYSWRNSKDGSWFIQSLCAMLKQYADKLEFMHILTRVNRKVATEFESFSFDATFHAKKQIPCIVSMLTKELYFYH

[4] = molecular target: T4, Sentrin-specific protease 6 (Homo sapiens, UniProt Q9GZR1); test: SAR Analysis of small molecule inhibitors of Sentrin-specific protease 6 (SENP6) using a Luminescent assay. [Related pubchem assays (depositor defined):AID2582, AID2599]; type: functional
T4 sequence (Q9GZR1 whole entry): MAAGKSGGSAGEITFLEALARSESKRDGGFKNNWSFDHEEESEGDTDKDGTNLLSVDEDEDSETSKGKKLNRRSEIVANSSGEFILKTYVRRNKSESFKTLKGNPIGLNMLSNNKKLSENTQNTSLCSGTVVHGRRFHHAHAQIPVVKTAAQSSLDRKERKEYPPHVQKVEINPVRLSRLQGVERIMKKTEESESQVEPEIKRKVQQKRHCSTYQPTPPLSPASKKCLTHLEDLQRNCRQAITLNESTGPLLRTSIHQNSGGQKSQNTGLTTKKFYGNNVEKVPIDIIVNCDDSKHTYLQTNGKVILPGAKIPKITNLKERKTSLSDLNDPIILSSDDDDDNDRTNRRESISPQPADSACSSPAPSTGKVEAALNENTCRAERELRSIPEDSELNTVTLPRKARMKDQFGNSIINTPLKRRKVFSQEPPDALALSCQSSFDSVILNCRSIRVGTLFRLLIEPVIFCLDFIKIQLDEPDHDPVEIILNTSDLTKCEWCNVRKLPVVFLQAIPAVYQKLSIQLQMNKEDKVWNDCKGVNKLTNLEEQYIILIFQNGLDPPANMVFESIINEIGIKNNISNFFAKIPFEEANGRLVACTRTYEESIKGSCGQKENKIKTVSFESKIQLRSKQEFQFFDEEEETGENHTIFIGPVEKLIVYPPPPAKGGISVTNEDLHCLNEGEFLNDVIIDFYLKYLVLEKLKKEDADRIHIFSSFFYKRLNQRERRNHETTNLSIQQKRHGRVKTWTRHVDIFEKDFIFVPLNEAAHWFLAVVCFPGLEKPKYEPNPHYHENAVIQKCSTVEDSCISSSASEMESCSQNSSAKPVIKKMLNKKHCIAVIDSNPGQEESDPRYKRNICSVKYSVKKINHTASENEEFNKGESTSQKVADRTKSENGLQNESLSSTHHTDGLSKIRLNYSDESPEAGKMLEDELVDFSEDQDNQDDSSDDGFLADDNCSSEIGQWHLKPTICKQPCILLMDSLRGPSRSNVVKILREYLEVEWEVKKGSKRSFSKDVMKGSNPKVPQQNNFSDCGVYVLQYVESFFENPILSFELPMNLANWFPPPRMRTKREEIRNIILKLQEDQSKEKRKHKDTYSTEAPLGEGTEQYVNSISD

[5] = molecular target: T5, Sentrin-specific protease 7 (Homo sapiens, UniProt Q9BQF6); test: SENP7 protease inhibitors, SAR follow-up, biochemical, luminescence (AID 504497); type: functional
T5 sequence (Q9BQF6 whole entry): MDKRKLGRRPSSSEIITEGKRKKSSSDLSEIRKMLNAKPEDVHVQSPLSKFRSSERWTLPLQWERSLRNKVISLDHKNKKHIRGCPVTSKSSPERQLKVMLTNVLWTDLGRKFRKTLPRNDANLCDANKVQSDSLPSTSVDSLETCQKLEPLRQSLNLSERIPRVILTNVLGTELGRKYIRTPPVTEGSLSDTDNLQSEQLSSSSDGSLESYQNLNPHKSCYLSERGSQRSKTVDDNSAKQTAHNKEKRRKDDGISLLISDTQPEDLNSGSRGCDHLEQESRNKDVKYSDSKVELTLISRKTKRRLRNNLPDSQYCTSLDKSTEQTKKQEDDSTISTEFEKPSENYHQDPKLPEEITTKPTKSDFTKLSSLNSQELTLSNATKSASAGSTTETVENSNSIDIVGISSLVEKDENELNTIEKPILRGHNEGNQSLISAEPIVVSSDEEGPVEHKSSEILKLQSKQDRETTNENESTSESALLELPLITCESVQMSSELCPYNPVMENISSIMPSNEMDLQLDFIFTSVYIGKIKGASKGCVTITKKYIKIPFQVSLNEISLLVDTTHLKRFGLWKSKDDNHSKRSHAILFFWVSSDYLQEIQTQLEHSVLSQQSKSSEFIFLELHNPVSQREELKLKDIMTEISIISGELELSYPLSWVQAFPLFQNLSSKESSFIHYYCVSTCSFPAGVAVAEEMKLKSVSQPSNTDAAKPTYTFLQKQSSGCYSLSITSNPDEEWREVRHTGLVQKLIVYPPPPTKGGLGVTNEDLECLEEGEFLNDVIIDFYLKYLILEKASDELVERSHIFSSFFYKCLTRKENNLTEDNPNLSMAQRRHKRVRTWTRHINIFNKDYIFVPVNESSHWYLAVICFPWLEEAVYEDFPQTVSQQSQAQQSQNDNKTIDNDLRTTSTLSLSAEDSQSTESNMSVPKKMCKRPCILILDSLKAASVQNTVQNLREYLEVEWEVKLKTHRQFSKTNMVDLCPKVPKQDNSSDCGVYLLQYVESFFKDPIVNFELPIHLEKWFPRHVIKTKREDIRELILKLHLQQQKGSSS

[6] = molecular target: Luciferin 4-monooxygenase (Photinus pyralis, UniProt P08659); test: firefly luciferase enzyme inhibitors, dose response, biochemical, luminescence (AID 1891)
Luciferin 4-monooxygenase, sequence (P08659 whole entry): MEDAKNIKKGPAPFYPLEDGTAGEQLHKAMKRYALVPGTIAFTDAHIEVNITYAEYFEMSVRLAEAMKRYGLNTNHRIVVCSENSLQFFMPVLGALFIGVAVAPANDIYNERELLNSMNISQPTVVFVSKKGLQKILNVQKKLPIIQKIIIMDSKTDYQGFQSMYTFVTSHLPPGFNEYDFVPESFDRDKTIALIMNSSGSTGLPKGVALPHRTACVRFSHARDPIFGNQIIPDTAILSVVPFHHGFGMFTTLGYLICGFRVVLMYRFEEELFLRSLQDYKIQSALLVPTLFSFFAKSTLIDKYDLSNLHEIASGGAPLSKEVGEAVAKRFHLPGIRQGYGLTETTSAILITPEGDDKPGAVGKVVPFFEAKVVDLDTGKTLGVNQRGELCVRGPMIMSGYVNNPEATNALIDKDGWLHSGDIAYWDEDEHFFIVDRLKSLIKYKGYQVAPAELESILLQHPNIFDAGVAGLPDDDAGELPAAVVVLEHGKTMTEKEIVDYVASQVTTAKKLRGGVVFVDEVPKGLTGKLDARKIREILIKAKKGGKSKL

[7] = Luminescence Cell-Based Dose Confirmation HTS to Identify Inhibitors of Platelet Dense Granule Release. [Related pubchem assays: 1663 (Primary HTS), 1678 (Summary of Project)]; type: functional
[8] = molecular target: Melanin-concentrating hormone receptor 1 (Homo sapiens, UniProt Q99705); test: Late-stage fluorescence-based counterscreen for antagonists of the G-protein coupled receptor 7 (GPR7): cell-based dose response assay to identify antagonists of the melanin-concentrating hormone receptor 1 (MCHR1) Set 5.; type: functional
Melanin-concentrating hormone receptor 1, sequence (Q99705 whole entry, the tested form may be a part): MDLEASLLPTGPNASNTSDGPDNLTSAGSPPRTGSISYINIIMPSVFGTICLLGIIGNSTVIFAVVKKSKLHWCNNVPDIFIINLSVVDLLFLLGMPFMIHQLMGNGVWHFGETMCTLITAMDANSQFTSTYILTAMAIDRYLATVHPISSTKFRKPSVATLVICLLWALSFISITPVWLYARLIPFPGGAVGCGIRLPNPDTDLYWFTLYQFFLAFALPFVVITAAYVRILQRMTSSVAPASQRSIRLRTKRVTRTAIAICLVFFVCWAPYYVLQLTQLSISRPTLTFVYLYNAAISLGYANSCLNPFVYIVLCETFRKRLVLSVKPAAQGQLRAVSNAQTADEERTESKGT

LIM domain kinase 1 = LIM domain kinase 1 (Homo sapiens, UniProt P53667); test: Navigating the Kinome. Panel member name: LIMK1; type: functional
LIM domain kinase 1, sequence (P53667 whole entry, the tested form may be a part): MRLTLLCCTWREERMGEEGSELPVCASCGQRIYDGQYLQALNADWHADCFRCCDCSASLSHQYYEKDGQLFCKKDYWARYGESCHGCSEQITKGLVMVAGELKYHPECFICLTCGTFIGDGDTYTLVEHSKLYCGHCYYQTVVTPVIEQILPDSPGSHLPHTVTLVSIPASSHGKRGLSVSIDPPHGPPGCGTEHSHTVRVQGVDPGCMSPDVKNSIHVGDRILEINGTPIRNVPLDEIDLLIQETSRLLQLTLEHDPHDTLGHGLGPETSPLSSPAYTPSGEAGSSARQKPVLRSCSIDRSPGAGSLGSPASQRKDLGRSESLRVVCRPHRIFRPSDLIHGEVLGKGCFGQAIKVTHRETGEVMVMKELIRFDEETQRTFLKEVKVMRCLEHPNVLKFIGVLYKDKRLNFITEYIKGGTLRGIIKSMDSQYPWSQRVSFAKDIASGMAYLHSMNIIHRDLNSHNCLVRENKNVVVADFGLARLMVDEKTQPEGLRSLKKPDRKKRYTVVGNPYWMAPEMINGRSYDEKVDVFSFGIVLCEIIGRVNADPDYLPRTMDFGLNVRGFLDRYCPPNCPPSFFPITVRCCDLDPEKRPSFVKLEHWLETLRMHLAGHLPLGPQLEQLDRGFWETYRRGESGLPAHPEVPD

[9] = molecular target: Serine/threonine-protein kinase Chk1 (Homo sapiens, UniProt O14757); type: functional;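 note: measured as one member of a kinome-wide kinase profiling panel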
Serine/threonine-protein kinase Chk1, sequence (O14757 whole entry): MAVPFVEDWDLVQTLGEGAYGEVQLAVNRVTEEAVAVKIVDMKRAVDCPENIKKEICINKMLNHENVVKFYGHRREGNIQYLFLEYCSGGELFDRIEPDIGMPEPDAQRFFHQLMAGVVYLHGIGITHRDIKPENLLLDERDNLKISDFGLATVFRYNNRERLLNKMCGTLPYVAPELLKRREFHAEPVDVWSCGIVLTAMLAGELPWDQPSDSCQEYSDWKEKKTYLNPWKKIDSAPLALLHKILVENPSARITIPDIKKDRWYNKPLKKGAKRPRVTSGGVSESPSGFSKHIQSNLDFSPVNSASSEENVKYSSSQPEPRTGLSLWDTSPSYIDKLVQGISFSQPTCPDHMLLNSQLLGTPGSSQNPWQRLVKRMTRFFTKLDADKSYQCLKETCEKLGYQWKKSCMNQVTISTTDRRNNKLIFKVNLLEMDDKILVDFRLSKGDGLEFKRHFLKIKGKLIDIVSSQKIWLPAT

[10] = molecular target: T6, Serine/threonine-protein kinase Nek2 (Homo sapiens, UniProt P51955); type: functional
T6 sequence (P51955 whole entry): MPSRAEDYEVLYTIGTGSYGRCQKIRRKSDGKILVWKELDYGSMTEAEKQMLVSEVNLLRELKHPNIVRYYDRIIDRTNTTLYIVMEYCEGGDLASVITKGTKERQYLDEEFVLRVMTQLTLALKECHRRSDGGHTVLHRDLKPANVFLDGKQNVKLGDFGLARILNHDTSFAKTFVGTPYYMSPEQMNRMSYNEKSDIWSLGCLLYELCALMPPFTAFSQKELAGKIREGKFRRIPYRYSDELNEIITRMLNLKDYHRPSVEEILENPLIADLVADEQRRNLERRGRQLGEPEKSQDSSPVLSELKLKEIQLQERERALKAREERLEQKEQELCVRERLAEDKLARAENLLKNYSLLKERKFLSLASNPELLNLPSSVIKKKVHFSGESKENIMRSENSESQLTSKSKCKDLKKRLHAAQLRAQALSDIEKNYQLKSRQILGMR

[11] = molecular target: Cyclin-dependent kinase 8 (Homo sapiens, UniProt P49336); test: Navigating the Kinome. Panel member name: CDK8; type: functional
Cyclin-dependent kinase 8, sequence (P49336 whole entry): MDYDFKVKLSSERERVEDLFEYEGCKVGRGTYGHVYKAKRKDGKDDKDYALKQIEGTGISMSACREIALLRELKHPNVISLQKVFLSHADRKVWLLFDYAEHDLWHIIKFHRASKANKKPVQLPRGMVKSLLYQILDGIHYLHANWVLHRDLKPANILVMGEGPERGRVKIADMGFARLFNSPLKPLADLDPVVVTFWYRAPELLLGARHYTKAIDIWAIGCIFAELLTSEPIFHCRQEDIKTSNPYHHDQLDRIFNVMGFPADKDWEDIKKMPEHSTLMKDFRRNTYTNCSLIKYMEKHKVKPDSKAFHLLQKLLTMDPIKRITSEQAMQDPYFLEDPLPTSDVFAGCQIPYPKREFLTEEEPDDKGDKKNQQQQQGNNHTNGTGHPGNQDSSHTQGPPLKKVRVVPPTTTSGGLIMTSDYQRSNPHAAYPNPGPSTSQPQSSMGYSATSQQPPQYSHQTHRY

IC50 (Caspase-3) | IC50 [4] | IC50 [5] | Compound | EC50 [2] | IC50 [3] | also measured
 |  |  | COc1cc(C2C(C#N)=C(N)Oc3cc(N)ccc32)cc(OC)c1OC (stereo not drawn) | 13.5 µM (active) |  | IC50 [1]: > 80 µM (inactive)
> 99 µM (inactive) | > 99 µM (inactive) | > 99 µM (inactive) | CCN(CC)S(=O)(=O)c1ccc(C(=O)Nc2nc3c(C)ccc(Cl)c3s2)cc1 |  | > 99 µM (inactive) | 
 |  |  | CC(Oc1ccccc1)C(=O)N(CCC1=CCCCC1)c1c(N)n(Cc2ccccc2)c(=O)[nH]c1=O (stereo not drawn) | 15 µM (active) |  | EC50 [6]: > 112 µM (not active); EC50 [7]: > 112 µM (not active)
 |  |  | CCOc1cccc(Oc2c(Cl)cnn(Cc3cccc4ccccc34)c2=O)c1 |  |  | IC50 [8]: 18.8 µM (inactive)
 |  |  | O=S(=O)(Nc1ccc2ccccc2c1O)c1ccc(F)cc1 |  |  | Ki (LIM domain kinase 1): 2.51 µM (active); Ki [9]: 3.16 µM (active); Ki [10]: 3.16 µM (active); Ki [11]: 2.51 µM (active)
> 99 µM (inactive) | > 99 µM (inactive) | > 99 µM (inactive) | Cc1c(C(=O)Nc2nc3ccccc3s2)oc2ccccc12 |  | > 99 µM (inactive) | 

Reference: ChEMBL document CHEMBL1201862, “PubChem BioAssay data set” (2004)
